Source: patent US4151041A, “Process for production of maltopentaose and maltohexaose” (Meiji Seika Kaisha, Ltd., priority 1976, dated 1979)

What was measured:
solubility = format: physicochemical
[1] = test system: Staphylococcus aureus Smith S-424; experiment: host-defense stimulation in JCL-ICR mice against bacterial infection (survival, LD50 of bacteria); format: in vivo; details: living animals
Procedure: The test was conducted as follows: The crude, yellowish brown powder obtained in Example 1 was reprecipitated from water-ethanol and the reprecipitate was dissolved in a phosphate-buffered saline at ph 7.2. The resultant solution containing a mixture of maltopentaose and maltohexaose was intraperitoneally administered into a group of JCL-ICR mice (male) having an average body weight of 20g (4 weeks old) (eight mice per group) at a dosage of 100 mg/kg body or 20 mg/kg body. The administration was effected three times at an interval of 48 hours.
72 hours after the final administration, the mice were intraperitoneally inoculated with 0.5 ml/mouse of a cell dispersion of Staphylococcus aureus Smith S-424 strain which had been prepared by dilution of the incubated culture with physiological saline solution followed by addition of 5% mucin. The number of the mice that survived was counted during five days after the inoculation and the LD50 value of the bacterial cells (the number of the bacterial cells necessary to kill 50% of mice) calculated in each case. Control testing was also conducted where the treatment with the mixture of maltopentaose and maltohexaose was omitted.

[2] = test system: mice infected with ascites tumor of "Sarcoma 180"; experiment: cellular immunity test according to the delayed skin reaction technique; format: in vivo, ICR-JCL mice (male); details: for adjuvant effect on immuno-potentiating activity of SF-1130-x substance: with SF-1130-x substance
Procedure: The test was carried out by the following procedure: A group of ICR-JCL mice (male) having an average body weight of 31.58±4g (8 weeks old) (six mice per group) were inoculated with ascites tumor of "Sarcoma 180". 24 hours after the inoculation of the tumor cells, each of the drug samples to be tested was subcutaneously administered once into the mice. Two days after the inoculation an ethanolic solution of 5% picryl chloride was applied to the hair-shaved abdomens of mice to establish the sensitization. Subsequently, each drug sample under test was subcutaneously administered once a day for four successive days. Nine days after the inoculation, a solution of 1% picryl chloride in olive oil was applied to the two sides of both ears of mice to establish the secondary sensitization. 24 hours after the secondary sensitization, the degree (%) of increase in thickness of the ears was evaluated for the test mice. The extent of the delayed skin reaction can be assessed from the percentage increase.

test microorganism = experiment: paper disc-plate method, test microorganisms in general; format: cell-based; details: for effect on antibacterial activity of the SF-1130-x2 substance: 1.25 mg/cc in upper plate layer, with SF-1130-x2; for antibacterial activity in themselves: alone, under the Table 4 testing conditions; for effect on antibacterial activity of the SF-1130-x1 substance: in combination with SF-1130-x1; for effect on antibacterial activity of the SF-1130-x substance: with SF-1130-x substance
Procedure: The test was conducted by a conventional paper disc-plate method. Thus, the SF-1130-x2 substance was dissolved in distilled water at a concentration of 1 mg/cc or 2 mg/cc, and with the test solutions so prepared were impregnated paper discs made of filter paper 8 mm in diameter which were subsequently air-dried. These paper discs were placed on an upper plate layer of the known mycin-assay incubation medium comprising 0.5% peptone, 0.3% meat extract and 1.5% agar (pH 6) which contained the test microorganism to be incubated therein and which was laid over the lower layer of agar medium in the assaying dish. The incubation was made at a temperature of 37° C. overnight, and subsequently the diameters of the inhibition zones formed around the paper discs were measured. These tests were repeated in the same manner as above but with the additional incorporation of 1.25 mg/cc of maltopentaose or maltohexaose into the upper plate layer of the micin-assay incubation medium. […] Control testing was also conducted in which the antibacterial potency of the SF-1130-x2 substance alone was estimated in the absence of maltopentaose or maltohexaose.

Klebsiella pneumoniae = experiment: paper disc-plate method, combination with SF-1130-x1 substance; format: cell-based; details: in combination with SF-1130-x1, Klebsiella pneumoniae
[3] = in vitro antimicrobial / antibacterial activity (general statement); format: cell-based; details: for in vitro antimicrobial activity: in themselves

OC[C@H]1O[C@H](O[C@H]2[C@H](O)[C@@H](O)[C@@H](O[C@H]3[C@H](O)[C@@H](O)[C@@H](O[C@H]4[C@H](O)[C@@H](O)[C@@H](O[C@H]5[C@H](O)[C@@H](O)C(O)O[C@@H]5CO)O[C@@H]4CO)O[C@@H]3CO)O[C@@H]2CO)[C@H](O)[C@@H](O)[C@@H]1O (some centres unmarked) [maltopentaose]
solubility in acetone (solubility): insoluble
solubility in ethanol (solubility): insoluble
solubility in water (solubility): readily soluble
effect on host-defense system against bacterial infection [1]: may stimulate the host-defense system
adjuvant effect on immuno-potentiating activity of SF-1130-x substance [2]: adjuvant effect of increasing the immuno-potentiating activity
effect on antibacterial activity of the SF-1130-x2 substance (test microorganism): improves the antibacterial activity
antibacterial activity in themselves (test microorganism): no antibacterial activity
effect on antibacterial activity of the SF-1130-x1 substance (test microorganism): generally improves the antibacterial activity
effect on antibacterial activity of the SF-1130-x substance (test microorganism): improving the antibacterial activity
effect on antibacterial activity of the SF-1130-x1 substance (Klebsiella pneumoniae): improvement in the antibacterial activity is not observed
in vitro antibacterial activity [3]: no in vitro antibacterial activity
in vitro antimicrobial activity [3]: no in vitro antimicrobial activity

OC[C@H]1O[C@H](O[C@H]2[C@H](O)[C@@H](O)[C@@H](O[C@H]3[C@H](O)[C@@H](O)[C@@H](O[C@H]4[C@H](O)[C@@H](O)[C@@H](O[C@H]5[C@H](O)[C@@H](O)[C@@H](O[C@H]6[C@H](O)[C@@H](O)C(O)O[C@@H]6CO)O[C@@H]5CO)O[C@@H]4CO)O[C@@H]3CO)O[C@@H]2CO)[C@H](O)[C@@H](O)[C@@H]1O (some centres unmarked) [maltohexaose]
solubility in acetone (solubility): insoluble
solubility in ethanol (solubility): insoluble
solubility in water (solubility): readily soluble
effect on host-defense system against bacterial infection [1]: may stimulate the host-defense system
Degree of increase in thickness (ears) ([2]; 200 mg/kg body, subcutaneous): 4.7 ± 0.988 ×10^ -3 cm
Percentage increase ([2]; 200 mg/kg body, subcutaneous, Control = 100.0): 87.0%
adjuvant effect on immuno-potentiating activity of SF-1130-x substance [2]: adjuvant effect of increasing the immuno-potentiating activity
effect on antibacterial activity of the SF-1130-x2 substance (test microorganism): improves the antibacterial activity
antibacterial activity in themselves (test microorganism): no antibacterial activity
effect on antibacterial activity of the SF-1130-x1 substance (test microorganism): generally improves the antibacterial activity
effect on antibacterial activity of the SF-1130-x substance (test microorganism): improving the antibacterial activity
effect on antibacterial activity of the SF-1130-x1 substance (Klebsiella pneumoniae): improvement in the antibacterial activity is not observed
in vitro antibacterial activity [3]: no in vitro antibacterial activity
in vitro antimicrobial activity [3]: no in vitro antimicrobial activity
